Six compounds from patent publication US11945787B2, “Substituted imidazoles for preventing and/or treating cell or tissue necrosis” (Ela Pharma Ltd, priority 2015, dated 2024) can be followed below.

Data set [1] concerns elastase-like activity. Briefly: Elastase-like activity in lysates of siRNA-treated cells exposed to KCN. It is filed as cell-based. The settings on record: KCN 10 mM 30 minutes; FIG. 5A.
In a further data set the test system is Cathepsin C. Briefly: Cathepsin C activity in lysates of siRNA-treated cells exposed to KCN. The following applies: KCN 10 mM 30 minutes; FIG. 5B. It is filed as cell-based.
The next data set deals with U-937 cells. Briefly: siRNA transfection, KCN-induced necrosis of U-937 cells, LDH release. It is filed as cell-based, human. The following applies: U-937, 7 hours KCN; FIG. 4A. Background: LDH leaks from cells whose membrane has failed.
In data set [2] the test system is PC12 cells. The data set can be described thus: siRNA transfection, KCN-induced necrosis of PC12 cells, LDH release. The following applies: PC12, 5 hours KCN; FIG. 4C. It is filed as cell-based, rat.
The subject of data set [3] is C57BL/6J mice, acetaminophen hepatotoxicity. Briefly: APAP-induced liver toxicity in mice. It is filed as in vivo, mouse. The settings on record: IP 4 hours after APAP 300 mg/kg; measured 24 hours; dose dependent. How it is done: Wild type C57BL/6J mice weighing 23+3 grams were used, 6 mice per treatment. The mice were obtained from Harlan (Israel). All animal procedures and care techniques were approved by the Ben-Gurion University of the Negev Committee for the Ethical Care and Use of Animals in Research. Mice were fast for 16h prior to administration of a single intraperitoneal (i. p.) dose of acetaminophen (N-acetyl-p-aminophenol) APAP (300 mg/kg). 4 hours after the APAP injection, the mice were injected i. p. with the tested compound, dissolved in vehicle (20% DMSO in PBS). The control mice were injected with the vehicle only. 24h after APAP injection, the mice were sacrificed and blood collected from the heart. Heparin was used as an anti-clotting additive for plasma collection. The plasma samples were centrifuged at 4000 g at room temperature for 10 min. The supernatant was collected for measurement of ALT and AST levels. The enzyme levels were measured with an autoanalyzer in Soroka's Biochemistry Medical Center.

Data set [4] has as its system PC12 cells. Briefly: KCN-induced necrosis of PC12 cells, LDH release. Type of data set: cell-based, rat. The settings on record: for KCN-induced necrotic cell death assessed by LDH release: PC12, KCN 5 hours, FIGS. 6, 7A-B; for inhibition of necrosis induced by KCN at high concentrations / effect of inhibitor by itself on PC-12 cells: up to 300 μM; for effect of inhibitor by itself on PC-12 cells: without KCN. As for the experimental part:
The rat pheochromocytoma PC12 cell line was propagated in DMEM medium (Beit Haemek, Israel), supplemented with 5% heat-inactivated calf serum, 10% heat-inactivated horse serum, 2 mM L-glutamine, 100 U/ml penicillin and 100 μg/ml streptomycin. PC12 cells in logarithmic phase were seeded at a concentration of 1.2×10^5/well in 96-well plates and incubated overnight.
Thereafter, the cells were washed twice and maintained in RPMI-1640 (U-937cells) and DMEM (PC-12 cells) glucose-free medium, supplemented with 2 mM pyruvate and 10% dialyzed FCS for one hour. Then cells were treated with or without KCN (Merck, Germany) at the indicated concentrations for 7 hours (U-937 cells), or for 5 hours (PC12 cells).
Elastase inhibitors II (MeOSuc-AAPA-CMK) and elastase inhibitor III (MeOSuc-AAPV-CMK) were purchased from Calbiochem-Novabiochem, USA. Compound Gly-Phe diazomethylketone was purchased from MP Biomedicals, USA. All the compounds disclosed in Table 1 hereinabove were purchased from ChemDiv, San Diego, CA. The compounds were dissolved in DMSO and were administered 30 min before addition of the cell death inducer. The final concentration of DMSO, added to all samples, was 0.1%, which had no effect by itself siRNA and cell transfection
The amount of LDH released from lysed cells is a sensitive measure of cell death. Necrotic cell death was measured in 96-well plates using Promega CytoTox 96 LDH assay kit. LDH content from the cells lysed in 0.1% Triton X-100 for 10 min was used as an index of total LDH. The LDH released in culture medium was used as an index of necrotic cell death and the percentage from total LDH was calculated. The protection by the inhibitor was calculated based on comparing percentage of LDH release in the presence and in the absence of the inhibitor. The inhibitors were also added to totals, blanks and controls. Absorbance at 490 nm was measured by ELISA reader (BioTec).
These compounds were tested for their ability to inhibit necrosis induced by KCN in PC12 cells. The necrotic mode of cell death in this system was validated as previously described. PC12 cells were challenged with KCN as described above. The protective results of the compounds against KCN-induced necrosis assessed using LDH release method are shown below in Table 5. The IC50 values of these inhibitors is in the range of tens to single nanomolar.

Data set [5] deals with elastase-like activity. The data set can be described thus: Elastase-like activity in lysates of KCN-treated U-937 cells (MAAPV substrate). Type of data set: biochemical, human. The following applies: for induction of elastase-like enzymatic activity in intact cells: treatment of intact cells.
The subject of data set [6] is C57BL/6J mice, closed head trauma. The data set can be described thus: Closed head injury (traumatic brain injury) in mice. The settings on record: for neurological severity score (NSS): 100 μg into cisterna magna 1 min after trauma, 1 hour post injury; for space of necrotic tissue, TTC staining: 100 μg into cisterna magna, untreated traumatized 50%. Type of data set: in vivo, mouse. How it is done: The closed head injury method was used to determine the effect of the elastase inhibitor on the development of brain necrosis and on the neurological status assessed using the neurological severity score (NSS). NSS test was performed 1 hour after trauma. During NSS test, various reflexes, ability to move, beam balance, beam walk and other behavior parameters like seeking and exiting from a cycle were monitored. Development of necrosis was measured by assessing necrotic space in brain slices stained with 2,3,5-triphenyl-2H-tetrazolium chloride (TTC).
C57BL/6J mice weighing 40+4 g (mean±SD) were used in the study. A weight-drop device was used to deliver a shock to the scull resulting in a controlled cerebral injury. Impact was delivered by a silicone-coated 5 mm metal tip extruding from a platform that falls down a frame. This model of cranial injury has been used in previous studies [Feldman Z et al., J Neurosurg (1995) 83:1060-1066; Shapira Y et al., J Neurosurg Anesthesiol (1995) 7:17-25].). All animal procedures and care techniques were approved by the Ben-Gurion University of the Negev Committee for the Ethical Care and Use of Animals in Research.
Mice were prepared for surgery by anesthetization with isoflurane and allowed to breathe spontaneously. Maintenance of adequate anesthesia for the experimental procedure was confirmed by loss of corneal reflexes. Once the corneal reflexes were abolished, a midline scalp incision was made and the scalp and underlying muscles were moved laterally. Closed head trauma (CHT) was delivered to the skull over the frontal portion of the left cerebral hemisphere. 1 minute after the trauma 100 μg of elastase inhibitor II or III in its vehicle (DMSO solution), were injected intracerebraspinaly by direct delivery into the cisterna magna. The vehicle itself was previously found to have no effect.
In addition to the wild type C57BL/6J mice, neutrophil elastase knockout mice strain B6.129X1-Elane were also examined. All procedures were approved by the Ethics Committee of Ben-Gurion University of Negev.

Data set [7] deals with PC12 cells. Briefly: Rescue of KCN-treated PC12 cells, XTT viability up to 48 h. The settings on record: 5 h KCN, then full DMEM 24 or 48 hours; FIG. 7C. It is filed as cell-based, rat.

Where a SMILES comes first, the peptide text is derived from it. The star is where a group is joined. MeOSuc = COC(=O)CCC(=O)*; CH2Cl = ClC*

Regarding “siRNA for CELA3A: siRNA for CELA3A, CTGCCTTTGGCTGCAACTTCA (SEQ ID NO: 3), Qiagen (listed as DNA, chemistry not given here)”, the “elastase-like activity of cell lysates” value with elastase-like activity [1] is “stable and significant decrease”. In addition, in the data set with Cathepsin C, the “Cathepsin C activity of cell lysates” value is “no effect”. The “protection against KCN-induced necrosis, LDH release” value in the data set on U-937 cells is on record as “partial protection”. In addition, the “protection against cyanide induced cell death, LDH release” value in the data set with PC12 cells [2] was “significant protective effect”.
Turning to `O=C(c1csc(N2CCCCC2)n1)N1CCCC1` [Z601-4253, (2-(piperidin-1-yl)thiazol-4-yl)(pyrrolidin-1-yl)methanone], in [3], the “ALT level in blood” value was “significantly reduced” and the “AST level in blood” value is “significantly reduced”. Further, the inhibition at 0.0001 µM in the data set with PC12 cells [4] (Rattus norvegicus, PC-12, 5 h, 0.1 nM, KCN, PC12, LDH release (Table 5), read-out: % protection at 0.1 nM) amounted to 29%. Besides, the inhibition at 0.001 µM in the data set on PC12 cells [4] (Rattus norvegicus, PC-12, 5 h, 1 nM, KCN, PC12, LDH release (Table 5), read-out: % protection at 1 nM) came to 34%. In addition, in the data set on PC12 cells [4] (Rattus norvegicus, PC-12, 5 h, 10 nM, KCN, PC12, LDH release (Table 5), read-out: % protection At 10 nM), the inhibition at 0.01 µM was 61%. Also, in the data set with PC12 cells [4] (Rattus norvegicus, PC-12, 5 h, 0.1 μM, KCN, PC12, LDH release (Table 5), read-out: % protection at 0.1 μM), the inhibition at 0.1 µM worked out at 74%. Further, in the data set with PC12 cells [4] (Rattus norvegicus, PC-12, 5 h, 1 μM, KCN, PC12, LDH release (Table 5), read-out: % protection at 1 μM), the inhibition at 1 µM was determined as 100%.
With “siRNA for CELA1: siRNA for CELA1, CGGCAACATGCTGGTCCTTTA (SEQ ID NO: 2), Qiagen (listed as DNA, chemistry not given here)”, the “elastase-like activity of cell lysates” value with elastase-like activity [1] was “stable and significant decrease”. Moreover, the “Cathepsin C activity of cell lysates” value in the data set with Cathepsin C is “no effect”. Also, in the data set with U-937 cells, the “protection against KCN-induced necrosis, LDH release” value is given as “partial protection”. For the same compound, the “protection against cyanide induced cell death, LDH release” value with PC12 cells [2] is reported as “significant protective effect”.
Consider `COC(=O)CCC(=O)N[C@@H](C)C(=O)N[C@@H](C)C(=O)N1CCC[C@H]1C(=O)N[C@@H](C)C(=O)CCl` [EI II, MeOSuc-AAPA-CMK] (MeOSuc-AAPA-CH2Cl), for which the “induction of elastase-like enzymatic activity in intact cells” value in the data set on elastase-like activity [5] is reported as “abrogated the induction”. Besides, in data set [6], the “neurological severity score (NSS)” value is “significantly reduce neurological damage” and the “space of necrotic tissue, TTC staining” value is recorded as 25 % of the damaged hemisphere. Further, in the data set with PC12 cells [4], the “KCN-induced necrotic cell death assessed by LDH release” value is on record as “inhibited in a dose dependent manner”, the “inhibition of necrosis induced by KCN at high concentrations” value is reported as “significantly inhibited necrosis” and the “effect of inhibitor by itself on PC-12 cells” value was “inactive by themselves”. In the data set with PC12 cells [7], the “cell viability (XTT) after KCN treatment” value is “protective effect”.
By IC50 is commonly meant the point on the concentration scale where inhibition reaches its midpoint. `COC(=O)CCC(=O)N[C@@H](C)C(=O)N[C@@H](C)C(=O)N1CCC[C@H]1C(=O)N[C@H](C(=O)CCl)C(C)C` [EI III, MeOSuc-AAPV-CMK] (MeOSuc-AAPV-CH2Cl): the “inhibition of necrosis-induced elastase-like activity” value in the data set on elastase-like activity [5] (100 μM) was “completely inhibited”. The “effect on elastase activity of control cells” value with elastase-like activity [5] (100 μM, control cells) is listed as “slight effect”. For the same compound, in the data set with elastase-like activity [5] (lysates after 10 mM KCN 30 min, FIG. 3, read-out: IC50 of inhibition of necrosis-induced elastase-like activity), the concentration for half-maximal inhibition (IC50) was 2740 nM. In addition, the “induction of elastase-like enzymatic activity in intact cells” value with elastase-like activity [5] is “abrogated the induction”. Also, in data set [6], the “neurological severity score (NSS)” value is on record as “significantly reduce neurological damage” and the “space of necrotic tissue, TTC staining” value is on record as 25 % of the damaged hemisphere. For the same compound, in the data set on PC12 cells [4], the “KCN-induced necrotic cell death assessed by LDH release” value is “inhibited in a dose dependent manner”, the “inhibition of necrosis induced by KCN at high concentrations” value was “significantly inhibited necrosis” and the “effect of inhibitor by itself on PC-12 cells” value was “inactive by themselves”.
Consider “siRNA for Cathepsin C: siRNA for Cathepsin C silencing, ATGATCTGCATCAGTTGTAAA (SEQ ID NO: 1), Qiagen (listed as DNA, chemistry not given here)”, for which, in the data set with Cathepsin C, the “Cathepsin C activity of cell lysates” value is “stable and significant decrease”. Besides, the “protection against KCN-induced necrosis, LDH release” value in the data set on U-937 cells is reported as “protective effect”. Also, the “protection against cyanide induced cell death, LDH release” value in the data set with PC12 cells [2] was “significant protective effect”.
